Where a name gives a salt, the structure may show the parent alone.
Columns and labels:
[1] = tested on: isolated non-pregnant rat uterus; test: Effect on isolated non-pregnant rat uterus (spontaneous contractions, organ bath); type: cell-based; settings: 20 min, isolated uterine horn strip of estradiol-treated female SD rats, Locke solution 37° C., observed over 20 minutes
Description: Effect on isolated non-pregnant rat uterus:
Female SD rats (150~180 g) were used. 48 and 24 hours prior to use, rats were given estradiol (ovahormon benzoat: Trademark, Teikoku Hormone Mfg. Co., Ltd.) subcutaneously at a dose of 40 μg/rat to induce oestrus. The animals were killed and uterine horns were removed. Each strip was placed in an organ bath containing 25 ml Locke solution aerating with 95% O2, 5% CO2 at 37° C. under 1 g tension. Contractions were recorded isometrically. After the spontaneous contractions were of a uniform size, test compound was added to organ bath. The motility was observed over a 20 minutes period. Effect of test compound was calculated by comparing contractions before and after test compound.

[2] = tested on: isolated rat distal colon; test: Effect on isolated rat distal colon (spontaneous contractions, organ bath); type: cell-based; settings: 0.5 h, isolated distal colon strip of male SD rats, Tyrode solution 37° C., observed over 30 minutes
Description: Effect on isolated rat distal colon:
Male SD rats (180~230 g) were used. Animals were fasted for 24 hours prior to experiment. Distal colon was removed immediately after sacrifice and placed in an organ bath containing 25 ml Tyrode solution aerating with 95% O2, 5% CO2 at 37° C. The strip was mounted under 0.5 g tension and spontaneous contractions were recorded isometrically. After the mobility was of a uniform size, test compound was added to an organ bath and the contractions were observed over a 30 minutes period. Effect of test compound was calculated by comparing contractions before and after test compound.

Row | Compound | IC50 [1] [nM] | IC50 [2] [nM]
1 | CCOC(=O)COc1ccc2c(c1)CC(NC[C@H](O)c1cccc(Cl)c1)CCC2 (mixture of isomers) [Example 1, (1R,6'R)- and (1R,6'S)-2-[(3-ethoxycarbonyl-methoxy-6,7,8,9-tetrahydro-5H-benzocyclohepten-6-yl)amino]-1-(3-chlorophenyl)ethanol hydrochloride] | 200 | 0.68
2 | CCOC(=O)COc1ccc2c(c1)C[C@@H](NC[C@H](O)c1cccc(Cl)c1)CCC2 [2-3), (1R,6'S)-2-[(3-Ethoxycarbonylmethoxy-6,7,8,9-tetrahydro-5H-benzocyclohepten-6-yl)amino]-1-(3-chlorophenyl)ethanol hydrochloride] | 440 | 0.84
3 | CCOC(=O)COc1ccc2c(c1)C[C@H](NC[C@H](O)c1cccc(Cl)c1)CCC2 [3-2), (1R,6'R)-2-[(3-Ethoxycarbonylmethoxy-6,7,8,9-tetrahydro-5H-benzocyclohepten-6-yl)amino]-1-(3-chlorophenyl)ethanol] | 240 | 0.66

From patent US5387710A, “Ethanolamine derivatives having sympathomimetic and anti-pollakiuria activities” (Fujisawa Pharmaceutical Co., Ltd., priority 1992, dated 1995)
